Test results from the NIST ThermoML archive (doi:10.1021/je101361u).
± gives the expanded uncertainty stated by the source.

Test: xn = mol fraction of the nth substance listed
Conditions: 101.3 kPa, Liquid, Vibrating tube method

COCCOCCOC [2,5,8-trioxanonane] + ClCCCl
mass density [kg/m3]
Conditions	283.15 K	288.15 K	293.15 K	298.15 K	303.15 K	308.15 K
x2 = 0	–	948.72 ± 0.23	–	–	–	–
x2 = 0.0252	958.22 ± 0.25	953.25 ± 0.25	948.26 ± 0.25	943.26 ± 0.25	938.26 ± 0.25	933.23 ± 0.25
x2 = 0.0508	963.01 ± 0.24	958.01 ± 0.24	952.99 ± 0.24	947.97 ± 0.24	942.93 ± 0.24	937.88 ± 0.24
x2 = 0.0751	967.64 ± 0.24	962.62 ± 0.24	957.57 ± 0.24	952.52 ± 0.24	947.45 ± 0.24	942.36 ± 0.24
x2 = 0.1	972.47 ± 0.23	967.4 ± 0.23	962.33 ± 0.23	957.24 ± 0.23	952.14 ± 0.23	947.02 ± 0.23
x2 = 0.1502	982.62 ± 0.22	977.49 ± 0.22	972.35 ± 0.22	967.19 ± 0.22	962.02 ± 0.22	956.85 ± 0.22
x2 = 0.1999	993.12 ± 0.22	987.92 ± 0.22	982.7 ± 0.22	977.48 ± 0.22	972.24 ± 0.22	966.98 ± 0.22
x2 = 0.25	1004.25 ± 0.21	998.97 ± 0.21	993.69 ± 0.21	988.39 ± 0.21	983.08 ± 0.21	977.75 ± 0.21
x2 = 0.3002	1015.91 ± 0.21	1010.56 ± 0.21	1005.2 ± 0.21	999.83 ± 0.2	994.44 ± 0.2	989.03 ± 0.2
x2 = 0.3501	1028.01 ± 0.21	1022.59 ± 0.21	1017.14 ± 0.21	1011.69 ± 0.2	1006.21 ± 0.2	1000.72 ± 0.2
x2 = 0.4	1040.79 ± 0.22	1035.28 ± 0.21	1029.75 ± 0.21	1024.2 ± 0.21	1018.64 ± 0.2	–
x2 = 0.45	1054.2 ± 0.22	1048.58 ± 0.22	1042.96 ± 0.21	1037.32 ± 0.21	1031.66 ± 0.21	–
x2 = 0.5003	1068.49 ± 0.22	1062.78 ± 0.22	1057.05 ± 0.22	1051.31 ± 0.22	1045.56 ± 0.21	–
x2 = 0.5499	1083.31 ± 0.23	1077.45 ± 0.23	1071.62 ± 0.22	1065.77 ± 0.22	1059.91 ± 0.22	–
x2 = 0.5999	1098.98 ± 0.24	1093.07 ± 0.23	1087.13 ± 0.23	1081.17 ± 0.23	1075.19 ± 0.23	–
x2 = 0.6501	1115.77 ± 0.25	1109.73 ± 0.24	1103.67 ± 0.24	1097.58 ± 0.24	1091.48 ± 0.24	–
x2 = 0.7	1133.3 ± 0.26	1127.26 ± 0.25	1121.07 ± 0.25	1114.85 ± 0.25	1108.62 ± 0.24	–
x2 = 0.75	1151.98 ± 0.27	1145.68 ± 0.27	1139.34 ± 0.26	1132.98 ± 0.26	1126.61 ± 0.26	–
x2 = 0.8	1172.08 ± 0.28	1165.61 ± 0.28	1159.12 ± 0.28	1152.61 ± 0.27	1146.07 ± 0.27	–
x2 = 0.8499	1193.31 ± 0.3	1186.69 ± 0.3	1180.04 ± 0.29	1173.37 ± 0.29	1166.67 ± 0.29	–
x2 = 0.9	1216.25 ± 0.31	1209.44 ± 0.31	1202.6 ± 0.31	1195.74 ± 0.3	1188.86 ± 0.3	–
x2 = 0.925	1228.27 ± 0.33	1221.36 ± 0.33	1214.42 ± 0.32	1207.47 ± 0.32	1200.48 ± 0.32	–
x2 = 0.9494	1240.66 ± 0.34	1233.66 ± 0.34	1226.62 ± 0.33	1219.57 ± 0.33	1212.48 ± 0.33	–
x2 = 0.975	1253.89 ± 0.34	1246.79 ± 0.34	1239.64 ± 0.34	1232.47 ± 0.33	1225.28 ± 0.33	–
